Values of other authors as cited in patent US11033509B2 (BIOGEN MA INC., priority 2016, dated 2021).
Where a name gives a salt, the structure may show the parent alone.

Conditions: DMF absorbed in vivo and converted to MMF

In the case of `COC(=O)/C=C/C(=O)O` [MMF, monomethyl fumarate], the “half-life of MMF” value is given as “approximately 1 hour”.
